Literature values as cited in patent publication US20210379028A1, “TREATMENT OF DEPRESSIVE DISORDERS” (Ovid Therapeutics Inc., priority 2017, published 2021).

Tests used:
[1] = patients with a history of drug abuse who received gaboxadol
[2] = patients with severe major depressive disorder, combined with escitalopram
[3] = three-month efficacy study, treatment of insomnia

## Oc1noc2c1CCNC2 [gaboxadol, 4,5,6,7-tetrahydroisoxazolo [5,4-c] pyridine-3-ol]
[1]
  psychiatric adverse events: steep increase
[2]
  benefit of combining gaboxadol with escitalopram over escitalopram alone: no additional benefit
[3]
  effects in sleep onset and sleep maintenance: failed to show significant effects
